System: live HeLa cells
Experiment: Live-cell SRS imaging of organelle-targeted polyynes and co-localization with fluorescent organelle markers
Assay type: cell-based
Method: FIG. 9 is live-cell SRS imaging of organelle-targeted polyynes and co-localization with fluorescent organelle markers. […] High co-localizations are also observed between organelle-targeted polyynes with commercial fluorescent markers;
HeLa cells are cultured on a glass coverslip in a 4-well plate for 24 h, and […] Carbow2141 Mito is added in the media for 1 h at 37° C. Cells are washed with PBS for three times before imaging. For co-localization, 100 nM MitoTracker Deep Red is used to stain mitochondria for 1 h.
Cells were cultured on a glass coverslip in a 4-well plate for 24 h, and 4 μM Carbow2141 Lyso is added to cells for 30 min at 37° C. Cells are washed with PBS for three times before imaging. For co-localization, 100 nM LysoTracker Red (Invitrogen, L7528) is used to stain lysosome for 30 min.
Cell are incubated with 3 μM Carbow2141 PM in the culture media for 20 min at 37° C. and are washed with PBS for three times before imaging. For co-localization, 0.5 μg/mL CellMask Deep Red (Invitrogen, C10046) is used to stain cell membrane for 5 min.
Cells were cultured on a glass coverslip in a 4-well plate for 24 h and incubated with 10 μM Carbow2226 ER for 2 h at 37° C. Cells were washed with PBS for three times before imaging. For colocalization, 1 μM ERTracker Green (Invitrogen, E34251) was used to stain endoplasmic reticulum for 2 h. […]

**Q.** For O=C(NCCC[P+](c1ccccc1)(c1ccccc1)c1ccccc1)OCc1ccc(C#CC#CC#CC#Cc2ccccc2)cc1 [4-yne Mito], which “organelle localization / co-localization with fluorescent markers” value is on record?
**A.** Its value is “specific localization to mitochondria”.
